The results in this text go back to patent US8956824B2, “Methods for identifying allosteric modulators of ship polypeptides” (British Columbia Cancer Agency Branch, priority 2006, dated 2015).

Assay [1] relates to SHIP1+/+ and SHIP1−/− BMmφs. In words: LPS-stimulated PKB phosphorylation in BMmφs (immunoblot). As to conditions: 30 min pretreatment, 10 ng/mL LPS 15 min. It is filed as cell-based, mouse. The procedure: LPS stimulation of BMmφs. For the analysis of LPS-stimulated TNFα production, 2 ×10^5 cells were plated the night before in 24 well plates in BMmφp medium. The next day, the medium was changed and AQX-016A or carrier was added to cells at the indicated concentrations for 30 min prior to the addition of 10 ng/mL LPS. Supernatants were collected after 1 hr for TNFα determination by ELISA (BD Biosciences, Mississauga, ON, Canada). Data are expressed as the mean +/− SEM of triplicates and experiments were repeated 3 times. For analysis of intracellular signaling, 2×10^6 cells were plated the night before in 6 cm tissue culture plates. The next day, the cells were cultured in BMmφp medium without M-CSF for 1 hr at 37° C. and then pretreated with AQX-016A or carrier for 30 min prior to the addition of 10 ng/mL LPS for 15 min. Cells were washed with 4° C. PBS and resuspended in lysis buffer (50 mM Hepes, 2 mM EDTA, 1mM NaVO4 , 100 mM NaF, 50 mM NaPPi and 1%NP4O) supplemented with COMPLETE™ Protease Inhibitor Cocktail (Roche, Montreal, Canada). Lysates were rocked at 4° C. for 30 min and clarified by centrifuging 20 min at 12000×g. Lysates were then made 1× in Laemmli's buffer, boiled 2 min and loaded onto 7.5% SDS polyacrylamide cells. […]

Assay [2] addresses T1, C2 domain deleted (ΔC2) SHIP1 enzyme (Mus musculus, UniProt Q9ES52, DEL725-860/G861A/K862A/M863A).
T1 construct: Full length, wild-type SHIP1 enzyme (wt) or SHIP1 enzyme in which the PH or C2 domains were deleted; made in house; 293T cells are stated only for the wild-type enzyme
T1 sequence (Q9ES52 with tags, fused parts or gaps DEL725-860/G861A/K862A/M863A limits assumed): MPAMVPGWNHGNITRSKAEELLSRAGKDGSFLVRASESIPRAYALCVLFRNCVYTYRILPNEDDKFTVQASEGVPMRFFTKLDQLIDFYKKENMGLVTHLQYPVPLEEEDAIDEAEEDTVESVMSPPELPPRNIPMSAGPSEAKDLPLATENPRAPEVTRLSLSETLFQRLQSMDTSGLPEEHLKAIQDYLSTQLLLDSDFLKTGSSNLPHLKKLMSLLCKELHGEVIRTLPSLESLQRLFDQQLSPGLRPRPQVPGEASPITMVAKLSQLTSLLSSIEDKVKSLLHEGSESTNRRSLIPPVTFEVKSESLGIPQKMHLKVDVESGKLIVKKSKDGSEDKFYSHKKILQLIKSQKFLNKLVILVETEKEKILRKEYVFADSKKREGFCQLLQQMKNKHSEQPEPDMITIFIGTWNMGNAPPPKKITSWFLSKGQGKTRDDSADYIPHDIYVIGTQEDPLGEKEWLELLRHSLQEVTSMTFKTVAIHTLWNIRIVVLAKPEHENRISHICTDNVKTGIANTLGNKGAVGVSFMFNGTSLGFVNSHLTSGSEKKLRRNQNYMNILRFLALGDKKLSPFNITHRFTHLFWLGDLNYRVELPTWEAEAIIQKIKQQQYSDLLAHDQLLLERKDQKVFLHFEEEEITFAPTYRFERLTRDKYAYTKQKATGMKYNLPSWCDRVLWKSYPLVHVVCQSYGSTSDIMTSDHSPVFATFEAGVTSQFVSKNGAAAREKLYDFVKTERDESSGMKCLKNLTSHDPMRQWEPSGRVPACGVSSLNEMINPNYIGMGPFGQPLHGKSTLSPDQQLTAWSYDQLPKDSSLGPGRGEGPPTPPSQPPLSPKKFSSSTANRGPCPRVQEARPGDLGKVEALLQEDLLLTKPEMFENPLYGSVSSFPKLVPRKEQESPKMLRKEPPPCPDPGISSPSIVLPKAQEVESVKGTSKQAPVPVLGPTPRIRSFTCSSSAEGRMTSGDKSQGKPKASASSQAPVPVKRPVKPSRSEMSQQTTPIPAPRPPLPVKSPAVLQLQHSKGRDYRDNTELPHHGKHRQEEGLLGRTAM
In words: Scintillation proximity assay, ΔC2 SHIP1. In kind it is binding. Conditions: 5 μCi. The procedure: Scintillation Proximity Assays AQX-MN100 was radiolabeled with tritium by GE Healthcare (Piscataway, N.J.) to a specific activity of 42 Ci/mmole. Copper chelate (His-Tag) YSi YSi SPA Scintillation Beads (GE Healthcare ,Piscataway, NJ) were diluted in 0.25% BSA/TBS to 1.5 mg/mL and recombinant, His6-tagged protein added at the indicated concentrations: wild-type (1 pM), ΔC2 SHIP enzyme (1 pM) or C2 domain (10 nM). Protein was allowed to bind 1 h at 23° C., and 250 μg of beads were aliquoted per well of a 96-well plate. 5 μCi of [3H]-AQX-MN100 was added per well, the plate gently agitated for 30 min and the amount of bead associated radioactivity quantified by counting in a Wallac BETAPLATE™ plate scintillation counter. Results are representative of 3 independent experiments.

In assay [3] the test system is 100 protein kinase and phosphatase targets. The assay can be described thus: In vitro kinase/phosphatase screen. It is filed as biochemical. Conditions: 2 μM final concentration; changes <25% not considered significant. The procedure: Protein kinase assays were performed at 30° C. for 15 min in a final volume of 25 μL. The assay was initiated by the addition of [32P]-ATP and the reaction mixture incubated at 30° C. for 15 minutes. After the 15 minute incubation period, the assay was terminated by spotting 20 μl of the reaction mixture onto phosphocellulose P81 plate. The phosphocellulose P81 plate was washed 3 times for approximately 15 minutes each in a 1% phosphoric acid solution. The radioactivity on the P81 plate was counted in the presence of scintillation fluid in a scintillation counter. Protein phosphatase activities were determined using pNPP as substrate. Assays were performed at 37° C. for 15 min in a […]. The assay was started by incubating the reaction mixture at 37° C. for 15 minutes. After the 15 minutes incubation period, the assay was terminated by the addition of 25 μl of 2N NaOH stopping solution. The absorbance of the reaction solution was measured in a spectrophotometer at 410 nm. The activity of the enzymes in the presence of AQX-MN100 was compared to that in the vehicle control and expressed as a % change in activity relative to that observed in the vehicle control. Changes in activity of <25% were not considered significant. _

Each structure is given as a SMILES string. “Also recorded” adds a separate entry of the source.

In the case of `Cc1cc(O)c(O)c2c1[C@]1(C)CC[C@H]3C(C)(C)CCC[C@]3(C)[C@H]1C2` [AQX-016A], the “LPS-stimulated PKB phosphorylation, SHIP1+/+ vs SHIP1−/− BMmφs” value in assay [1] is on record as “preferentially inhibited, in a dose dependent manner, LPS-stimulated PKB phosphorylation in SHIP1+/+ but not in SHIP1−/−”.

On to `Cc1cc(O)cc2c1[C@]1(C)CC[C@H]3C(C)(C)CCC[C@]3(C)[C@H]1C2` [AQX-MN100], for which, in assay [2], the “binding of [3H]-AQX-MN100 to SHIP1 lacking its C2 domain” value is listed as “C2 domain is required for SHIP1 to bind; also recorded: requires the C2 domain to bind”. Besides, in assay [3], the “activity on a panel of 100 kinases and phosphatases” value was “very little activity; also recorded: selectively enhances SHIP enzyme activity”.
